These results are taken from patent US20050123571A1, “Modulation of apoptosis” (priority 2003, published 2005).

One experiment deals with Ian4−/− BBDP T cells. Nature of the experiment: Mitochondrial membrane potential (Δψm) by MitoLight flow microfluorometry. The format is cell-based, rat. Conditions: control incubation with uncoupler, 50 μM, 15 minutes, 37° C.; positive control for dissipation of Δψm. How it is done: Flat bottom 6-well culture plates (Falcon, Franklin Lakes, N.J.) were incubated with 10 μg/well anti-CD3 mAb, 10 μg/well anti-CD28 mAb, or both, in PBS at 4° C. After overnight incubation, plates were rinsed three times with PBS. Nylon wool-purified T cells were cultured in antibody-coated wells at 6×10^6 cells/well in 3 ml complete AIM-V media (AIM-V plus 55 μM 2-mercaptoethanol, Sigma) for 17, 40, or 68 hr in a humidified incubator at 37° C. with 5% CO2. Un-stimulated cells were incubated in complete AIM-V alone. Mitochondrial membrane potential (Δψm) of thymocytes and T cells was measured by two- or three-color flow microfluorometry using MitoLight™ (Chemicon, Temecula, Calif.) alone or in combination with biotin-conjugated anti-αβTCR mAb. Mitolight™ was employed according to the manufacturer's instructions. It is a lipophilic cation with a cellular distribution similar to that of JC-1. […] When the concentration of JC-1 reaches a threshold, it forms aggregate, causing a shift in its absorbed and emitted fluorescence (S. T. Smiley et al., Proc. Natl. Acad. Sci. U.S.A 88, 3671-3675 (1991)). […] For each experiment control and BBDP T cells were analyzed for both red and green fluorescence after Mitolight™ labeling. […] For each analysis, a minimum of 10,000 events was analyzed.

In experiment [1] the test system is Lymph node T cells from BBDP rats. Kind of experiment: Caspase inhibition, sub-diploid DNA. Type of experiment: cell-based, rat. Conditions: 17 hr of culture, varying concentrations. The method, then:
The percentage of T cells with sub-diploid DNA was measured as described (I. Nicoletti, G. Migliorati, M. C. Pagliacci, F. Grignani, C. Riccardi, J. Immunol. Methods 139, 271-279 (1991)). Briefly, freshly isolated or in vitro stimulated lymph node T cells were washed twice with PBS and centrifuged at 1500 rpm for 5 min. Pellets (2×10^6) were resuspended in 200 μl of PBS, fixed in 70% cold ethanol, and stored at 4° C. until used. At the time of analysis, cells were washed twice with PBS and incubated at 25° C. for 40 min in 500 μl of PBS containing 0.1% Triton X-100 and 50 μg of RNase (Boehringer Mannheim, Indianapolis, Ind.). Propidium iodide (10 μg, Sigma, St. Louis, Mo.) was added, and the suspension was incubated in the dark for 15 min. DNA content was determined by flow microfluorometry using a FACStarR® instrument (Becton Dickinson, San Jose, Calif.). Lymphoid cells were identified electronically by their forward and side light-scatter characteristics. For each analysis, a minimum of 10,000 events was analyzed.
Lymph node T cells from BBDP rats were prepared as described above and cultured in AIM-V medium in the presence or absence of varying concentrations of the caspase inhibitors Z-VAD-FMK, Z-VDVAD, Z-DEVD, D-IETD, and Z-LEHD obtained from R&D Systems (Minneapolis, Minn.). […] Cells were then harvested, and the percentage of cells with sub-diploid DNA was determined as above.

Where a SMILES comes first, the peptide text is derived from it. The star is where a group is joined. Cbz = O=C(OCc1ccccc1)*; CH2F = FC*

With `N#CC(C#N)=NNc1cccc(Cl)c1` [CCCP, carbonyl cyanide m-chlorophenyl-hydrazone], the “percentage of T cells with high Δψm” value in the experiment on Ian4−/− BBDP T cells was approximately 4%. For `COC(=O)C[C@H](NC(=O)[C@H](C)NC(=O)[C@@H](NC(=O)OCc1ccccc1)C(C)C)C(=O)CF` [Z-VAD-frnk] (Cbz-Val-Ala-Asp(OMe)-CH2F), in experiment [1], the “apoptosis of Ian4−/− T cells (percentage of cells with sub-diploid DNA)” value is “prevented apoptosis”.
